Test system: 777334-354-R2-J4-PDC tumor spheroids with HUVEC/MSC, viability
Test: Anticancer human tumor 777334-354-R2-J4-PDC patient-derived pancreatic adenocarcinoma cell line growth inhibition [GQUAD]
Details: for IC50: curve of first compound; for viability, T/C: stronger effect = lower value; active = viability on the fitted dose curve at most 10% of control; inactive = the rest
Outline: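 Multi-cell-type spheroids of tumor cells with HUVEC and mesenchymal stem cells, treated with drug combinations. Concentrations descend in half-log steps from near clinical Cmax, or from 10 microM where Cmax is unknown; viability read-out.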

[1] = second compound 0.0316 µM, first compound 0.0316 µM
[2] = second compound 0.0316 µM, first compound 0.1 µM
[3] = second compound 0.0316 µM, first compound 0.316 µM
[4] = second compound 0.0316 µM, first compound 1 µM
[5] = second compound 0.0316 µM, first compound 3.16 µM
[6] = second compound 0.0316 µM, first compound 10 µM
[7] = second compound 0.1 µM, first compound 0.0316 µM
[8] = second compound 0.1 µM, first compound 0.1 µM
[9] = second compound 0.1 µM, first compound 0.316 µM
[10] = second compound 0.1 µM, first compound 1 µM
[11] = second compound 0.1 µM, first compound 3.16 µM
[12] = second compound 0.1 µM, first compound 10 µM
[13] = second compound 0.316 µM, first compound 0.0316 µM
[14] = second compound 0.316 µM, first compound 0.1 µM
[15] = second compound 0.316 µM, first compound 0.316 µM
[16] = second compound 0.316 µM, first compound 1 µM
[17] = second compound 0.316 µM, first compound 3.16 µM
[18] = second compound 0.316 µM, first compound 10 µM
[19] = second compound 1 µM, first compound 0.0316 µM
[20] = second compound 1 µM, first compound 0.1 µM
[21] = second compound 1 µM, first compound 0.316 µM
[22] = second compound 1 µM, first compound 1 µM
[23] = second compound 1 µM, first compound 3.16 µM
[24] = second compound 1 µM, first compound 10 µM
[25] = second compound 3.16 µM, first compound 0.0316 µM
[26] = second compound 3.16 µM, first compound 0.1 µM
[27] = second compound 3.16 µM, first compound 0.316 µM
[28] = second compound 3.16 µM, first compound 1 µM
[29] = second compound 3.16 µM, first compound 3.16 µM
[30] = second compound 3.16 µM, first compound 10 µM
[31] = second compound 10 µM, first compound 0.0316 µM
[32] = second compound 10 µM, first compound 0.1 µM
[33] = second compound 10 µM, first compound 0.316 µM
[34] = second compound 10 µM, first compound 1 µM
[35] = second compound 10 µM, first compound 3.16 µM
[36] = second compound 10 µM, first compound 10 µM
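Note: spheroids exposed to compounds for 7 days before readout.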

CC1COCCN1c1cc(C2(O)CC3CCC(C2)O3)c2cnn(-c3ccn[nH]3)c2n1 (stereo not drawn) + CN(C)c1ccc(Nc2c3ccc(NC(=O)CCN4CCCC4)cc3nc3cc(NC(=O)CCN4CCCC4)ccc23)cc1
189 nM: IC50 (second compound 10 µM)
599 nM: IC50 (second compound 0.0316 µM) | IC50 (second compound 0.316 µM)
inactive: viability, T/C [1] 96.5% | viability, T/C [2] 79.1% | viability, T/C [3] 59.8% | viability, T/C [4] 40.5% | viability, T/C [5] 32% | viability, T/C [6] 20.4% | viability, T/C [7] 105% | viability, T/C [8] 80.3% | viability, T/C [9] 58.8% | viability, T/C [10] 43.3% | viability, T/C [11] 33.9% | viability, T/C [12] 20% | viability, T/C [13] 96.3% | viability, T/C [14] 75.4% | viability, T/C [15] 53.2% | viability, T/C [16] 45.8% | viability, T/C [17] 33.4% | viability, T/C [18] 19% | viability, T/C [19] 83% | viability, T/C [20] 63% | viability, T/C [21] 53% | viability, T/C [22] 36% | viability, T/C [23] 31.4% | viability, T/C [24] 19.1% | viability, T/C [25] 87.9% | viability, T/C [26] 68.8% | viability, T/C [27] 46.7% | viability, T/C [28] 34.7% | viability, T/C [29] 26.9% | viability, T/C [30] 16.5% | viability, T/C [31] 74.7% | viability, T/C [32] 56.1% | viability, T/C [33] 45.8% | viability, T/C [34] 29.7% | viability, T/C [35] 25.5% | viability, T/C [36] 16%
296 nM: IC50 (second compound 3.16 µM)
644 nM: IC50 (second compound 0.1 µM)
348 nM: IC50 (second compound 1 µM)

COc1cc(C2c3cc4c(cc3C(OC3OC5COC(C)OC5C(O)C3O)C3COC(=O)C23)OCO4)cc(OC)c1O (stereo not drawn) + Cc1[nH]c2ccc(F)cc2c1-c1nc2c3cccnc3c3ncccc3c2[nH]1
< 31.6 nM: IC50 (second compound 3.16 µM) | IC50 (second compound 10 µM)
inactive: viability, T/C [1] 95.9% | viability, T/C [2] 91% | viability, T/C [3] 90.1% | viability, T/C [4] 71.4% | viability, T/C [5] 64.4% | viability, T/C [6] 41.5% | viability, T/C [7] 104% | viability, T/C [8] 91.7% | viability, T/C [9] 90.2% | viability, T/C [10] 72.1% | viability, T/C [11] 63.4% | viability, T/C [12] 44.7% | viability, T/C [13] 72.8% | viability, T/C [14] 88.6% | viability, T/C [15] 84.1% | viability, T/C [16] 80% | viability, T/C [17] 58.8% | viability, T/C [18] 39.7% | viability, T/C [19] 89.5% | viability, T/C [20] 78.7% | viability, T/C [21] 73.5% | viability, T/C [22] 63.6% | viability, T/C [23] 54.1% | viability, T/C [24] 32.3% | viability, T/C [25] 36.6% | viability, T/C [26] 47.1% | viability, T/C [27] 33.7% | viability, T/C [28] 22.4% | viability, T/C [29] 22.2% | viability, T/C [30] 15.9% | viability, T/C [31] 32.6% | viability, T/C [32] 22.6% | viability, T/C [33] 27.6% | viability, T/C [34] 15.1% | viability, T/C [35] 16% | viability, T/C [36] 12%
3270 nM: IC50 (second compound 1 µM)
6310 nM: IC50 (second compound 0.0316 µM)
5370 nM: IC50 (second compound 0.316 µM)
7250 nM: IC50 (second compound 0.1 µM)

CC(C)n1c(=O)n(C)c2cnc3cc(F)c(-c4ccc(OCCCN5CCCCC5)nc4)cc3c21 + Cc1[nH]c2ccc(F)cc2c1-c1nc2c3cccnc3c3ncccc3c2[nH]1
< 31.6 nM: IC50 (second compound 3.16 µM) | IC50 (second compound 10 µM)
inactive: viability, T/C [1] 106% | viability, T/C [2] 108% | viability, T/C [3] 113% | viability, T/C [4] 115% | viability, T/C [5] 115% | viability, T/C [6] 96% | viability, T/C [7] 105% | viability, T/C [8] 89.5% | viability, T/C [9] 131% | viability, T/C [10] 103% | viability, T/C [11] 118% | viability, T/C [12] 98% | viability, T/C [13] 101% | viability, T/C [14] 99.5% | viability, T/C [15] 90.3% | viability, T/C [16] 110% | viability, T/C [17] 99.1% | viability, T/C [18] 93.5% | viability, T/C [19] 90.8% | viability, T/C [20] 84.7% | viability, T/C [21] 90.6% | viability, T/C [22] 101% | viability, T/C [23] 93.8% | viability, T/C [24] 70.8% | viability, T/C [25] 30.8% | viability, T/C [26] 50.4% | viability, T/C [27] 40% | viability, T/C [28] 33.1% | viability, T/C [29] 28.5% | viability, T/C [30] 19.9% | viability, T/C [31] 28.7% | viability, T/C [32] 25.2% | viability, T/C [33] 41.9% | viability, T/C [34] 28.4% | viability, T/C [35] 27.1% | viability, T/C [36] 13.5%
> 10000 nM: IC50 (second compound 0.0316 µM) | IC50 (second compound 0.1 µM) | IC50 (second compound 0.316 µM) | IC50 (second compound 1 µM)

CC1COCCN1c1cc(C2(O)CC3CCC(C2)O3)c2cnn(-c3ccn[nH]3)c2n1 (stereo not drawn) + Cc1[nH]c2ccc(F)cc2c1-c1nc2c3cccnc3c3ncccc3c2[nH]1
186 nM: IC50 (second compound 1 µM)
active: viability, T/C [28] 8.38% | viability, T/C [29] 6.83% | viability, T/C [30] 4.02% | viability, T/C [34] 7.12% | viability, T/C [35] 7.7% | viability, T/C [36] 4.01%
384 nM: IC50 (second compound 0.316 µM)
inactive: viability, T/C [1] 93.8% | viability, T/C [2] 59.3% | viability, T/C [3] 52.8% | viability, T/C [4] 38.3% | viability, T/C [5] 33.2% | viability, T/C [6] 19% | viability, T/C [7] 98.7% | viability, T/C [8] 66.1% | viability, T/C [9] 56% | viability, T/C [10] 36.5% | viability, T/C [11] 31.9% | viability, T/C [12] 23% | viability, T/C [13] 84.6% | viability, T/C [14] 67.1% | viability, T/C [15] 50.6% | viability, T/C [16] 39.8% | viability, T/C [17] 31.4% | viability, T/C [18] 20.8% | viability, T/C [19] 66.8% | viability, T/C [20] 56% | viability, T/C [21] 44.9% | viability, T/C [22] 31.6% | viability, T/C [23] 21.3% | viability, T/C [24] 16.9% | viability, T/C [25] 25.2% | viability, T/C [26] 18.8% | viability, T/C [27] 11.6% | viability, T/C [31] 21.8% | viability, T/C [32] 16.9% | viability, T/C [33] 12.8%
302 nM: IC50 (second compound 0.0316 µM)
364 nM: IC50 (second compound 0.1 µM)
< 31.6 nM: IC50 (second compound 3.16 µM) | IC50 (second compound 10 µM)

— PubChem BioAssay AID2060499 (Molecular Pharmacology Branch, DTP, NCI, 2025)
